Paper PMC6349845, “Overcoming NADPH product inhibition improves D-sorbitol conversion to L-sorbose” (Scientific Reports, 2019)

Legend:
GoSLDH [1] = biological target: T1, GoSLDH (Gluconobacter oxydans, UniProt Q9KWR5); test: steady-state inhibition kinetics, double-reciprocal plots; assay type: biochemical
T1 construct: codon-optimised synthetic gene in pET28a, expressed in E. coli BL21-CodonPlus(DE3)-RIL, purified (His-tag vector)
T1 sequence (Q9KWR5 1-485): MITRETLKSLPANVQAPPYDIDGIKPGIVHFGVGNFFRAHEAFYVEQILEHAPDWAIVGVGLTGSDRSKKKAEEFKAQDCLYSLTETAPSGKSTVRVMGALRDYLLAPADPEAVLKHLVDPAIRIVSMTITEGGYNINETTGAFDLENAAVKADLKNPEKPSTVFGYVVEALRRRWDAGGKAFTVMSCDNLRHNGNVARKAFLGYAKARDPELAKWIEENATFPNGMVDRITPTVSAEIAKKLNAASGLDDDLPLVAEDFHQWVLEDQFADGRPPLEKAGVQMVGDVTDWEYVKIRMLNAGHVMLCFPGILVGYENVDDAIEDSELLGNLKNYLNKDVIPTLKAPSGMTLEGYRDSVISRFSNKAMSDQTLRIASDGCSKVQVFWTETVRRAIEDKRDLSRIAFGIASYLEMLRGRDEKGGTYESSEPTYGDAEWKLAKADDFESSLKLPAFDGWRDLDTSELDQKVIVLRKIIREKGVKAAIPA

GoSLDH [2] = biological target: T1, GoSLDH; test: isothermal titration calorimetry; assay type: binding

| Ki (GoSLDH [1]) [µM] | Kd (GoSLDH [2]) [µM] | SMILES |
| --- | --- | --- |
| 100 | 67.1 | NC(=O)C1=CN([C@@H]2O[C@H](COP(=O)(O)OP(=O)(O)OC[C@H]3O[C@@H](n4cnc5c(N)ncnc54)[C@H](OP(=O)(O)O)[C@@H]3O)[C@@H](O)[C@H]2O)C=CC1 [NADPH] |
| – | 89.3 | NC(=O)c1ccc[n+]([C@@H]2O[C@H](COP(=O)(O)OP(=O)(O)OC[C@H]3O[C@@H](n4cnc5c(N)ncnc54)[C@H](OP(=O)(O)O)[C@@H]3O)[C@@H](O)[C@H]2O)c1 [NADP^+] |
